# Patent publication US20120156180A1, “COMPOSITIONS AND METHODS FOR THE TREATMENT OF KRABBE AND OTHER NEURODEGENERATIVE DISEASES” (The Board of Trustees of the University of Illinois, priority 2009, published 2012)
# Entries after “also recorded” stand apart in the source; their conditions may differ. Square brackets hold non-standard residues; d marks the D form. Ends that are not written are not given here. pS = N[C@@H](COP(=O)(O)O)C(=O)O
# Tests used:
# fast axonal transport = experiment: Vesicle motility assays in isolated axoplasm; type: biochemical, squid Loligo pealii; details: for effect on both antero and retrograde axonal transport rates: 5 μM perfused into extruded axoplasm; for effect on both modes of axonal transport: 1 μM and 5 μM psychosine perfused
# Procedure: Axoplasm was extruded from giant axons of the squid Loligo pealii (Wood Hole Marine Biological Laboratory) as described previously. Szebenyi et al., Neuron 40:41-52 (2003) and Morfini et al., Nat. Neurosci. 9:907-916 (2006). Sphingolipids were diluted into X/2 buffer (175 mM potassium aspartate, 65 mM taurine, 35 mM betaine, 25 mM glycine, 10 mM HEPES, 6.5 mM MgCl2, 5 mM EGTA, 1.5 mM CaCl2 and 0.5 mM glucose, pH 7.2) supplemented with 2-5 mM ATP and 20 μl was added to perfusion chambers. Preparations were analyzed on a Zeiss Axiomat with a 100×, 1.3 n.a. objective, and DIC optics. […]. Organelle velocities were measured with a Photonics Microscopy C2117 video manipulator (Hamamatsu).
# To test whether psychosine exerts a role in neurodegeneration by affecting axonal transport, an experiment was performed using axoplasms isolated from giant squid axons, an approach used to examine the effects on antero and retrograde transport rates of a variety of molecules. Morfini et al., Neuromolecular Med. 2:89-99 (2002).
# Whether psychosine is a pathogenic effector capable of triggering axonal defects in the Twitcher mouse was assessed. To test psychosine effect on FAT, a model of vesicular transport based on the squid Loligo Pelai was employed. This approach has been extensively characterized to examine the effects of different pathogenic proteins. Morfini et al., Neuromolecular. Med. 2:89-99 (2002). Candidate molecules were perfused in a microchamber containing the axoplasm preparations and the average motility of MBO was measured over a period of time. This model has played a fundamental role in the discovery of kinesin-1S (Brady, Nature 317:73-75 (1985)) and the regulatory mechanisms of FAT (Morfini et al., Neuromolecular. Med. 2:89-99 (2002); Morfini et al., Embo J. 23:2235-2245 (2004); and Ratner et al., J. Neurosci. 18:7717-7726 (1998)) as well as the pathogenic mechanism of various proteins and neurotoxins (Morfini et al., Proc. Natl. Acad. Sci. USA 104:2442-2447 (2007); Morfini et al., Nat. Neurosci. 9:907-916 (2006); and Pigino et al., Proc. Natl. Acad. Sci. USA 106:5907-5912 (2009)). Furthermore, antero and retrograde modes of transport in squid axoplasm are identical to those of intact axons (Lasek and Brady, Nature 316:645-647 (1985)) and all regulatory mechanisms discovered in the squid axoplasm are identical to the mammalian neuron.
# Pure preparations of extruded axoplasm isolated from the squid were perfused with different concentrations of psychosine (or related controls) and the speed of MBO was recorded over time.
# [1] = test system: EAE, spinal cord injury, and hypoxic injury; details: cited from earlier work; for prevention of axonal loss: EAE, spinal cord injury, and hypoxic injury
# NCX1 = experiment: Immunoblot of NCX1 in spinal cord extracts of flecainide-treated Twitcher mice; type: in vivo, mouse
# Procedure: Tissues were isolated and either frozen for long term storage or directly homogenized in lysis buffer (1 mM PMSF, 2 mM Sodium Orthovanadate, 1 mM NaF, 20 mM Tris HCl pH 7.4, 1% Triton X100, 150 mM NaCl, 5 mM MgCl2, 300 nM Okadaic acid). Samples were then briefly sonicated on ice and spun down at 5000 rpm for 5 min to remove the debris. The amount of protein of the supernatant was then quantified with the Bradford assay (Biorad) and equal amount of proteins were loaded on a 4-12% Bis-Tris gel (Invitrogen). After protein determination, samples were diluted to the same concentration and 10-20 μg of total protein electrophoresed on 4-12% Tris-glycine Nupage (Invitrogen) gels at 80 V in MOPS-SDS running buffer. After at 80 mV the gels were transferred for 2 hour at 120 PVDF on a PVDF membrane (Biorad). The membrane was blocked in 5% milk, 1% BSA, 0.05% Tween 20 in Tris Glycine buffer (blocking solution), then probed with primary antibodies overnight at 4° C. and with the secondary horse radish peroxidase conjugated antibodies for 1 hour at room temperature. […] The membrane was washed for at least one hour after the primary and secondary antibody incubations and developed in the Enhanced Luminescence kit (Thermo Scientific). After exposure, the bands were quantified with the software imageJ and the genes of interest were normalized to the relative loading control.
# Twitcher-YFPax mice = experiment: Flecainide treatment of Twitcher-YFPax mice: twitching and axonopathic figures by YFP confocal microscopy; type: in vivo, mouse
# Excerpt: Bechtold et al., Brain 128:18-28 (2005). […] FIG. 23.
# To examine whether protection of axons accompanied the flecainide-mediated amelioration of twitching, spinal cord tissue was collected at P30, and longitudinal sections of the ventral white matter were observed by confocal microscopy for axonal integrity, using the YFP expression as reporter.
# Spinal cord and sciatic nerves were removed from treated and non-treated mice, providing tissue for regular confocal microscopy. Paraformaldehyde-fixed longitudinal 50-μm thick cryosections of spinal cord were used. Whole mount preparations of sciatic nerves were used for confocal analysis. Nerve samples were thoroughly Z-imaged for YEP excitation on a Zeiss Meta-confocal microscope. The number of fragmented or discontinued axons per area in samples from Twi-YFPax mice (treated and non-treated) were counted and the mean values compared to those from WT-YFPax controls. Plotting these numbers against postnatal days allowed a determination of when axonal damage starts and the extent of the effect of each neuroprotective treatment at any given time. Axonal integrity was determined by visualizing continuous YFP fluorescence along a single axon over several hundreds of microns, while visualization of axonal fragments, varicosities, and/or swellings were considered a sign of axonal damage.
# primary cortical neurons = experiment: Primary cortical neurons incubated with psychosine and control sphingolipids (neurites, MTT assay); details: for effect on number of neurites: embryonic primary cortical neurons, psychosine 0.1, 1 and 10 μM
# Procedure: Cell cultures of cortical neurons were prepared as previously described. […] E16 pregnant females were sacrificed, the brains of the litter were collected, and the cortex was isolated. The brain was chopped, treated with 0.25% trypsin and then passed through a fire polished pipette. The cells were then plated in DMEM (Mediatech) supplemented with 10% fetal bovine serum (FBS) and, after 2 hours, the medium was changed to Neurobasal medium supplemented with B27. For cell survival, the MTT assay (Chemicon) was performed as indicated by the supplier. Briefly, 5000 cells/well were plated in a 96 well plate, and the stimuli were administered for 24 hours. At the end of the incubation time, the MTT reagent was added and, after 4 hours, the reaction was stopped and the absorbance was read at 570 nm. […] Psychosine, D-Sphingosine, and C6-Ceramide were purchased from Sigma and resuspended in ethanol to the desired concentration.
# To test the hypothesis that the presence of psychosine was detrimental to the survival of these neurons, the effect of psychosine treatment on embryonic primary cortical neurons was tested. […] The cytotoxicity of psychosine was determined with the MTT assay, which directly measures mitochondrial activity (FIG. 20L).
# [2] = calcium-sensitive dye, Invitrogen; cited from earlier work
# [3] = test system: psychosine-mediated neurotoxicity; experiment: Psychosine-mediated neurotoxicity with GSK3β inhibitor L803; details: no experimental details given
# PKC = details: cited from earlier work
# PP1 = PP1 enzyme activity assay in cortical neurons incubated with psychosine; type: cell-based, mouse
# Procedure: Samples were processed for quantitation of PP1 with the Molecular Probes RediPlate™ 96 EnzChek® Serine/Threonine Phosphatase Assay Kit (Molecular Probe), as described by the manufacturer. Samples were homogenized in buffer (50 mM Tris-HCl pH 7.0, containing 0.1 mM CaCl2, 125 μg/ml BSA, 0.05% Tween 20) using a IKA Ultra-Turrax T8 homogenizer. An equal amount of protein was loaded in each well of the 96-well plate and fluorescence was read at an excitation of 370 nm and an emission of 460 nm.
# [4] = perfusion with control D-Sphingosine
compound,measurement,setting,value
chondroitin sulfate,effect on both antero and retrograde axonal transport rates,fast axonal transport,no detectable effect
O=C1NC(=O)C(c2ccccc2)(c2ccccc2)N1 [phenytoin],prevention of axonal loss,[1],successfully prevented major axonal loss
O=C(NCC1CCCCN1)c1cc(OCC(F)(F)F)ccc1OCC(F)(F)F (centres unmarked) [flecainide],NCX1 expression in spinal cord,NCX1; early flecainide treatment (P5),reduced NCX1 expression at early (P20) and late (P30) ages; also recorded: reduced the expression of NCX1
same,NCX1 expression in spinal cord,NCX1; late flecainide treatment (P9),Reduction of NXC1 was not detected; also recorded: no differences in NCX1 expression
same,onset of twitching (percentage of mice twitching),"Twitcher-YFPax mice; 30 mg/kg body weight/day from P5 or P9 until P30, at 15, 20, 25 and 30 days of age",delayed onset of twitching
same,protection of axons in the spinal cord,Twitcher-YFPax mice; daily subcutaneous 30 mg/kg/day starting from P2,significantly protected axons in the spinal cord; also recorded: even stronger protective effect
same,reduction of number of structural pathologies (axonopathic figures per area) to motor axons,"Twitcher-YFPax mice; early treatment from P5, 30 mg/kg/day, spinal cord at P30",about 50%
same,frequency of axonopathic figures in the ventral spinal cord,"Twitcher-YFPax mice; late treatment from P9, 30 mg/kg/day, spinal cord at P30",not significantly different from that in vehicle-treated animals
same,reduction of axonal degeneration,"[1]; 30 mg/kg/day, models of demyelinating EAE",sufficient to reduce axonal degeneration
same,prevention of axonal loss,[1],successfully prevented major axonal loss
same,"sodium channel firing, sodium influx and axon protection",[1]; models of acute and chronic demyelination,"successful in reducing excessive firing of sodium channels, decreasing sodium influx, and protecting axons"
CCCCCCCCCCCCC/C=C/[C@@H](O)[C@@H](N)CO [D-Sphingosine],effect on number of neurites,primary cortical neurons,did not exert any effect
same,effect on speed of anterograde or retrograde transport,fast axonal transport; control lipid perfused,did not affect the speed of anterograde or retrograde transport
same,"transport rate, anterograde FAT",fast axonal transport; [4],1.5-2 mm/sec
same,"transport rate, retrograde transport",fast axonal transport; [4],1-1.4 mm/sec
Sulfatides,effect on both antero and retrograde axonal transport rates,fast axonal transport,inhibited both anterograde and retrograde modes of fast axonal transport
C[S+]([O-])c1ccc(-c2nc(-c3ccncc3)c(-c3ccc(F)cc3)[nH]2)cc1 (centres unmarked) [SB203580],prevention of GM1-mediated inhibition of anterograde fast axonal transport,fast axonal transport,prevented GM1-mediated inhibition of anterograde fast axonal transport
same,prevention of sphingomyelin inhibition of anterograde fast axonal transport,fast axonal transport,prevented
sphingomyelin,effect on anterograde mode of fast axonal transport,fast axonal transport; 5 μM perfused,inhibited the anterograde mode of fast axonal transport only
same,effect on retrograde mode of fast axonal transport,fast axonal transport; 5 μM perfused,did not show any effect on the retrograde mode of transport
fluo-4,Kd,[2],345 nM
"CCCCCCCCCCCCC/C=C/[C@@H](O)[C@H](CO)NC(=O)CCCCC [C6 ceramide, C6-Ceramide]",effect on number of neurites,primary cortical neurons,comparable
KEAPPAPPQ[pS]P [L803],effect on psychosine-mediated neurotoxicity,[3],decreased psychosine-mediated neurotoxicity
C=C1[C@@H](O)[C@@H]2O[C@]3(CC[C@H](/C=C/[C@@H](C)[C@@H]4CC(C)=C[C@@]5(O[C@H](C[C@@](C)(O)C(=O)O)CC[C@H]5O)O4)O3)CC[C@H]2O[C@@H]1[C@@H](O)C[C@H](C)[C@H]1O[C@@]2(CCCCO2)CC[C@H]1C [okadaic acid],prevention of psychosine-induced inhibition of fast axonal transport,fast axonal transport; 200 nM okadaic acid co-perfused with 5 μM psychosine,prevented much of the blockage of axonal transport; also recorded: prevented FAT inhibition induced by psychosine
"CCCCCCCCCCCCC/C=C/[C@@H](O)[C@@H](N)CO[C@@H]1O[C@H](CO)[C@H](O)[C@H](O)[C@H]1O [psychosine, galactosylsphingosine]",effect on number of neurites,primary cortical neurons,decrease in the number of neurites
same,"cytotoxicity, MTT assay","primary cortical neurons; primary cortical neurons, 1 μM, 24 hours",toxic even at low concentrations
same,effect on both modes of axonal transport,fast axonal transport,strong inhibition of both modes of axonal transport
same,effect on both modes of axonal transport,fast axonal transport; listed as Psychosine,strongly inhibited both modes of FAT
same,effect on both antero and retrograde axonal transport rates,fast axonal transport,rapid reduction of both antero and retrograde axonal transport rates; also recorded: strong inhibitory effect on both antero and retrograde transport
same,inhibition of kinases,PKC,known to inhibit kinases such as PKC
same,PP1 activity,PP1; acutely purified embryonic cortical neurons incubated with psychosine,PP1 activity was induced; also recorded: dose-dependent increase in PP1 activity
same,PP1 activity,"PP1; cortical neurons, incubation with psychosine for 1 hour",PP1 activity increased
